These compounds were tested against T1, Human Recombinant Matriptase 2 (Homo sapiens, UniProt Q8IU80) (assay: Matriptase 2 fluorescence based inhibition assay, Method B (50 mM TRIS pH 7.5, 150 mM NaCl, 0.01% gelatin)). Details: 1 uM compound; Assay Used = B (Method B).
T1 construct: purchased Enzo Life Sciences (an in-house preparation was also used) ALX-201-752-1
T1 sequence (Q8IU80 1-811): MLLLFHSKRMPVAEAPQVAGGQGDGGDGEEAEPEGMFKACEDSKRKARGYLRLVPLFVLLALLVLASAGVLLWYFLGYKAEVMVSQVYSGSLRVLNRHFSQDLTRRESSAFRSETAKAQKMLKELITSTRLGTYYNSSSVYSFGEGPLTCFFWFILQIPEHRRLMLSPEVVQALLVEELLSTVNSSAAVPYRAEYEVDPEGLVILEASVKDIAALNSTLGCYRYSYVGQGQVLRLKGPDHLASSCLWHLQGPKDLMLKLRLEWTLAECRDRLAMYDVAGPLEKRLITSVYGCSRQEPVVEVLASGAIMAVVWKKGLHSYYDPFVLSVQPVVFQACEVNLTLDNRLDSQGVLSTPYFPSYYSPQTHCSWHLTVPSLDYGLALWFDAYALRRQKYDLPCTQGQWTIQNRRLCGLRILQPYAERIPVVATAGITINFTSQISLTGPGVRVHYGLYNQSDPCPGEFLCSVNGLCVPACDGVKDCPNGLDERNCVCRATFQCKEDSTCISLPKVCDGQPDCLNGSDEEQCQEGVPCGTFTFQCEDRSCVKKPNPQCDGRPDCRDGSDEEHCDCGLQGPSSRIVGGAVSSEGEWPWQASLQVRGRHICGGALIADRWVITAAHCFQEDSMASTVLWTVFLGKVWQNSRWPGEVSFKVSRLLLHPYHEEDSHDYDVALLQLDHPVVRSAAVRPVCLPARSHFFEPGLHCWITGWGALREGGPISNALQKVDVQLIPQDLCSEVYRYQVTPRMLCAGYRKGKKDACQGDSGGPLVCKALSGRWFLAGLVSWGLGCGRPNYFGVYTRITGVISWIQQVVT
Type: biochemical
In short: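 Fluorogenic substrate Boc-Gln-Ala-Arg-7-amido-4-methylcoumarin (100 μM) cleavage read at Ex 360/Em 480 nm 60 min after addition, following 30 min enzyme–compound preincubation at 25° C. Enzyme was 7 nM commercial or 15 nM in-house; DMSO 1%. IC50s fitted by non-linear sigmoidal regression.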

SMILES | Mar-2 % inhibition at 1 uM
N=C(N)c1ccc2cc(C(=O)N[C@H]3CC[C@H](N)CC3)n(Cc3ccccc3-c3ccccc3)c2c1 [Compound I-646] | A (A represents 0%≤I≤25%)
N#Cc1c(C(=O)N[C@H]2CC[C@H](N)CC2)n(Cc2cccc3ccccc23)c2cc(C(=N)N)ccc12 [Compound I-657] | A (A represents 0%≤I≤25%)
N=C(N)c1ccc2cc(C(=O)N[C@H]3CC[C@H](N)CC3)n(Cc3ccc(C(N)=O)c4ccccc34)c2c1 [Compound I-642] | C (C represents 50%≤I≤75%)

Same assay, conditions: 1 uM compound; Assay Used = B (Method B); read-out: Mar-2 % inhibition at 1 uM

SMILES | inhibition at 1 µM
CC1CCCCN1CCCNC(=O)c1cc2ccc(C(=N)N)cc2n1Cc1cccc2ccccc12 (stereo not drawn) [Compound I-683] | 50 to 75%
COc1ccc(Oc2cc(Cn3c(C(=O)O)cc4ccc(C(=N)N)cc43)c3ccccc3c2)cc1 [Compound I-688] | 50 to 75%
N=C(N)c1ccc2cc(C(=O)O)n(Cc3cc(OC4CCCCC4)cc4ccccc34)c2c1 [Compound I-682] | 25 to 50%
CC1(O)CCC(OC(=O)c2cc3ccc(C(=N)N)cc3n2Cc2cc(Oc3ccccc3)cc3ccccc23)CC1 (stereo not drawn) [Compound I-617] | 0 to 25%
N=C(N)c1ccc2cc(C(=O)O)n(Cc3cc(Oc4ncccn4)cc4ccccc34)c2c1 [Compound I-693] | 75 to 100%
N=C(N)c1ccc2cc(C(=O)O)n(Cc3c(Cl)c(Sc4ccccc4)cc4ccccc34)c2c1 [Compound I-653] | 0 to 25%
N=C(N)c1ccc2cc(C(=O)O)n(Cc3cccc4c(Oc5ccccc5)cccc34)c2c1 [Compound I-730] | 50 to 75%
N=C(N)c1ccc2c(c1)cc(C(=O)O)n2Cc1cccc2ccccc12 [Compound I-651] | 0 to 25%
CN1CCC(OC(=O)c2cc3ccc(C(=N)N)cc3n2Cc2cccc3ccccc23)CC1 [Compound I-752] | 75 to 100%
N=C(N)c1ccc2cc(C(=O)N[C@H]3CC[C@H](N)CC3)n(Cc3cc(OCCc4ccccc4)cc4ccccc34)c2c1 [Compound I-737] | 75 to 100%
N=C(N)c1ccc2cc(C(=O)N[C@H]3CC[C@H](NC(=O)NC(N)=O)CC3)n(Cc3cccc4ccccc34)c2c1 [Compound I-734] | 50 to 75%
N=C(N)c1ccc2cc(C(=O)OCCN)n(Cc3cc(Oc4ccccc4)cc4ccccc34)c2c1 [Compound I-629] | 75 to 100%
N#Cc1ccc(Cn2c(C(=O)N[C@H]3CC[C@H](N)CC3)cc3ccc(C(=N)N)cc32)c2ccccc12 [Compound I-691] | 75 to 100%
COc1ccc(Cn2c(C(=O)N[C@H]3CC[C@H](N)CC3)cc3ccc(C(=N)N)cc32)c2ccccc12 [Compound I-668] | 75 to 100%
CC(=O)NC(=N)c1ccc2cc(C(=O)NC3CCN(C)CC3)n(Cc3cccc4ccccc34)c2c1 [Compound I-762, 6-(N-acetylcarbamimidoyl)-N-(1-methylpiperidin-4-yl)-1-(naphthalen-1-ylmethyl)-1H-indole-2-carboxamide] | 0 to 25%
N=C(N)c1ccc2cc(C(=O)N[C@H]3CC[C@H](N)CC3)n(Cc3cccc4c(Br)cccc34)c2c1 [Compound I-792] | 75 to 100%
CC(C)OC(=O)NC(=N)c1ccc2cc(C(=O)NC3CCN(C)CC3)n(Cc3cccc4ccccc34)c2c1 [Compound I-784] | 25 to 50%
COC(=O)c1cc2ccc(C(=N)N)cc2n1Cc1cc(O)cc2ccccc12 [Compound I-696] | 50 to 75%
CS(=O)(=O)N[C@H]1CC[C@H](NC(=O)c2cc3ccc(C(=N)N)cc3n2Cc2cccc3ccccc23)CC1 [Compound I-753] | 50 to 75%
N=C(N)c1ccc2cc(C(=O)O)n(Cc3csc4ccccc34)c2c1 [Compound I-703] | 50 to 75%
N=C(N)c1ccc2cc(C(=O)O)n(Cc3cc(Oc4ccc(-c5ccccc5)cc4)cc4ccccc34)c2c1 [Compound I-711] | 25 to 50%
CC(C)(C)OC(=O)NC(=N)c1ccc2cc(C(=O)N[C@H]3CCCc4ccccc43)n(Cc3cccc4ccccc34)c2c1 [Compound I-767] | 0 to 25%

Same assay, conditions: 1 uM compound; Assay Used = B; read-out: Mar-2 % inhibition at 1 uM

SMILES | inhibition at 1 µM
N=C(N)c1cc(F)c2cc(C(=O)O)n(Cc3cc(Oc4ncccn4)cc4ccccc34)c2c1 [Compound I-569, 6-carbamimidoyl-4-fluoro-1-((3-(pyrimidin-2-yloxy)naphthalen-1-yl)methyl)-1H-indole-2-carboxylic Acid] | 75 to 100%
N=C(N)c1ccc2cc(C(=O)O)n(Cc3cc(Oc4ncccn4)cc4ccccc34)c2n1 [Compound I-544] | 25 to 50%
CN1CCC(NC(=O)c2cc3ccc(C(=N)N)cc3n2Cc2cccc3ccccc23)CC1 [Compound I-432] | 75 to 100%
N=C(N)c1ccc2[nH]c(C(=O)O)c(Cc3cc(Oc4ccccc4)cc4ccccc34)c2c1 [Compound I-588] | 25 to 50%
CC(C)(C)OC(=O)NC(=N)c1ccc2cc(C(=O)NC3CCC(NC(=O)OC(C)(C)C)CC3)n(Cc3cccc(Cl)c3Cl)c2c1 (stereo not drawn) [Compound I-493] | 0 to 25%
Cc1c(C(=O)N[C@H]2CC[C@H](N)CC2)n(Cc2cc(Oc3ncccn3)cc3ccccc23)c2cc(C(=N)N)ccc12 [Compound I-591] | 75 to 100%
N=C(N)c1ccc2cc(C(=O)NCCCN3CCCCC3)n(Cc3cccc4ccccc34)c2c1 [Compound I-478] | 75 to 100%
CC1(O)CCC(NC(=O)c2cc3ccc(C(=N)N)cc3n2Cc2cccc3ccccc23)CC1 (stereo not drawn) [Compound I-436] | 50 to 75%
N=C(N)c1ccc2cc(C(=O)N3CCOCC3)n(Cc3cccc4ccccc34)c2c1 [Compound I-468] | 25 to 50%
NC(=O)c1ccc2cc(C(=O)NC3CCNCC3)n(Cc3cccc4ccccc34)c2c1 [Compound I-455, 1-(naphthalen-1-ylmethyl)-N2-(piperidin-4-yl)-1H-indole-2,6-dicarboxamide] | 0 to 25%
N=C(N)c1ccc2cc(NC(=O)[C@H]3CC[C@H](N)CC3)n(Cc3cccc4ccccc34)c2c1 [Compound I-529, (1r,4r)-4-amino-N-(6-carbamimidoyl-1-(naphthalen-1-ylmethyl)-1H-indol-2-yl) cyclohexane-1-carboxamide] | 50 to 75%
CN1CCC(CNC(=O)c2cc3ccc(C(=N)N)cc3n2Cc2cc(Oc3ncccn3)cc3ccccc23)CC1 [Compound I-590] | 75 to 100%
CCOC(=O)N1CCC(NC(=O)c2cc3ccc(C(=N)NC(=O)OC(C)(C)C)cc3n2Cc2cccc3ccccc23)CC1 [Compound I-420] | 0 to 25%
N=C(N)c1ccc2nc(C(=O)N[C@H]3CC[C@H](N)CC3)n(Cc3cccc4ccccc34)c2c1 [Compound I-542, N-((1r,4r)-4-aminocyclohexyl)-6-carbamimidoyl-1-(naphthalen-1-ylmethyl)-1H-benzo[d]imidazole-2-carboxamide] | 75 to 100%
CN1CCN(C(=O)c2cc3ccc(C(=N)NC(=O)OC(C)(C)C)cc3n2Cc2cccc3ccccc23)CC1 [Compound I-425] | 0 to 25%
N=C(N)c1ccc2cc(C(=O)Nc3cccc(N4CCCC4)n3)n(Cc3cccc4ccccc34)c2c1 [Compound I-461] | 25 to 50%
N=C(N)c1ccc2cc(C(=O)N[C@H]3CC[C@@H](N)CC3)n(-c3ccc4ccccc4c3)c2c1 [Compound I-491] | 50 to 75%
NCc1ccc2cc(C(=O)N[C@H]3CC[C@H](O)CC3)n(Cc3cccc4ccccc34)c2c1 [Compound I-532] | 25 to 50%
N=C(N)c1ccc2c(C=O)c(C(=O)N[C@H]3CC[C@H](N)CC3)n(Cc3cccc4ccccc34)c2c1 [Compound I-515, N-((1r,4r)-4-aminocyclohexyl)-6-carbamimidoyl-3-formyl-1-(naphthalen-1-ylmethyl)-1H-indole-2-carboxamide] | 25 to 50%
N=C(N)c1ccc2cc(C(=O)NS(=O)(=O)C3CC3)n(Cc3cccc4ccccc34)c2c1 [Compound I-484] | 25 to 50%

Same assay, conditions: compound at 1 uM; Assay Used: B; read-out: Mar-2 % inhibition at 1 uM

SMILES | inhibition at 1 µM
N=C(N)c1ccc2cc(C(=O)N[C@H]3CC[C@H](N)CC3)n(Cc3cccc4sc(CO)cc34)c2c1 [Compound I-813, N-((1r,4r)-4-aminocyclohexyl)-6-carbamimidoyl-1-((2-(hydroxymethyl)benzo[b]thiophen-4-yl)methyl)-1H-indole-2-carboxamide] | 50 to 75%
Cc1cccc2sc(Cn3c(C(=O)N[C@H]4CC[C@H](N)CC4)cc4ccc(C(=N)N)cc43)cc12 [Compound I-820] | 25 to 50%

Same assay, conditions: read-out: Mar-2 % inhibition at 1 uM

SMILES | inhibition at 1 µM
COC(=O)c1cc2ccc(C(=N)NC(=O)Oc3ccccc3)cc2n1Cc1cccc2ccccc12 [Compound I-738] | 0 to 25%

Reference: US12428415B2, “Matriptase 2 inhibitors and uses thereof” (Disc Medicine, Inc., priority 2018, dated 2025)
